Read-outs that look alike come from different tables or passages of the source.
Columns and labels:
[1] = type: in vivo, human; conditions: renal impairment study; largely below the lower limit of quantification
MEK1 = conditions: cited from earlier work
[2] = type: in vivo, human; conditions: hepatic impairment study; largely below the lower limit of quantification

## Cn1cnc2c(F)c(Nc3ccc(Br)cc3Cl)c(C(N)=O)cc21 [selumetinib amide]
[1]
  plasma concentrations: < 2 ng/mL
MEK1
  less active than selumetinib: up to 50 fold
[2]
  plasma concentrations: < 2 ng/mL
